Assay [1] has as its target T1, Dipeptidylpeptidase IV, Human Placenta (Homo sapiens, UniProt P27487).
T1 construct: Dipeptidylpeptidase IV, Human Placenta (cat. 317630) of Calbiochem company; purchased Calbiochem 317630; host or cells: human placenta (tissue-derived natural enzyme)
Kind of assay: Active inhibition DPP IV assay (DPP IV-Glo Protease Assay Kit, chemical luminescent). Type of assay: biochemical. The conditions noted are these: chemiluminescence, two parallel treatments. The method, then: IC50 is determined by a NovoStar ELIASA (BMG Co. German).
According to the manual of the kit, this invention inspected the amount of the each reagent in the experimental, corresponding amount of DPPIV enzyme and chemiluminescence detection methods.

In the next assay the test system is normal ICR mice. The assay is described as follows: Preliminary evaluation of hypoglycemic activity: effects on glucose tolerance in normal ICR mice. Type of assay: in vivo. As to conditions: oral 0.3, 1, 3, 10 mg/kg, serum glucose. As to the method: Effects on glucose tolerance in normal ICR mice of examples 15 and 16 were determined. Hypoglycemic activities in vivo were preliminary evaluated. Preparation procedure: drugs were accurately weighed and dissolved in double-distilled water, misce bene to obtain 0.5 mg/ml suspension, then diluted into colorless and clear solutions which concentration were 0.15, 0.05 and 0.015 mg/ml. Administrated Dose: the oral doses were 0.3, 1, 3, 10 mg/kg and the volume was 20 ml/kg. […] Glucose kits was used in the determination of serum glucose levels. Take 250 μl enzyme fluid, then add 5 μl serum. Establish blank tube (by added 5 μl double-distilled) and the standard tube (by added 5 μl standard glucose solution) simultaneously, misce bene. 37° C. water bath for 20 min. To adjust to zero value with blank tube, OD(505 nm) levels were determined. Serum glucose level BG(mmol/l)=ODsample tube/ODstandard tube×5.55.

SMILES strings stand for the structures. Where a name gives a salt, the structure may show the parent alone.

T1 sequence (P27487 whole entry): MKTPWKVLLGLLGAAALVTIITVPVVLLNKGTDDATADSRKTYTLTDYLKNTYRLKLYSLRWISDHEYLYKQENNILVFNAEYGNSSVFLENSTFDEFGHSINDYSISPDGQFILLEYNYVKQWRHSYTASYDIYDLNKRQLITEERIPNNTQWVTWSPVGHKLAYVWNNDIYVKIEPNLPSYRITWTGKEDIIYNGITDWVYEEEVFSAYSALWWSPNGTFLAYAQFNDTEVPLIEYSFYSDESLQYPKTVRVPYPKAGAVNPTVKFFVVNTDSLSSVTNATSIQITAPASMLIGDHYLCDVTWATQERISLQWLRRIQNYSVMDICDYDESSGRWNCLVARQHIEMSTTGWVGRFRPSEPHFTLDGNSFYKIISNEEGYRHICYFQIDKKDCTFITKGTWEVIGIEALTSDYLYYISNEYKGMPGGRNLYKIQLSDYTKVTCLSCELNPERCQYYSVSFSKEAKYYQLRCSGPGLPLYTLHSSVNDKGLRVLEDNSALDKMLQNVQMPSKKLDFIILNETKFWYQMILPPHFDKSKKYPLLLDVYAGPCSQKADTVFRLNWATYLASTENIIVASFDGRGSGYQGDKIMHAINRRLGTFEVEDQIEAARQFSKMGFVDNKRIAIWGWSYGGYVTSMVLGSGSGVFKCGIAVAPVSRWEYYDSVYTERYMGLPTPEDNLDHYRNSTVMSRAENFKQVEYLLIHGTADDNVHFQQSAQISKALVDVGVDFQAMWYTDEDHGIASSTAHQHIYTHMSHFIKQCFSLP

As for `CC(C)NC(=O)OC1CC2CC(NCC(=O)N3CCCC3C#N)CC2C1` (stereo not shown) [Example 7, 5-[2-(2-cyano-pyrrolidin-1-yl)-2-oxo-ethylamino]-octahydro-pentalen-2-yl isopropyl-carbamate hydrochloride], the 50% inhibitory concentration (IC50) (usually the concentration at which inhibition is half-maximal) in assay [1] was 0.204 µM.
Consider `CCCCC1(O)CC2CC(NCC(=O)N3CCCC3C#N)CC2C1` (stereo not shown) [Example 10, 1-[2-(5-butyl-5-hydroxy-octahydro-pentalen-2-ylamino)-acetyl]-pyrrolidine-2-carbonitrilehydrochloride], for which, in assay [1], the IC50 was found to be 0.0183 µM.
For `Cl.N#CC1CCCN1C(=O)CNC1CC2CC(=O)CC2C1` (stereo not shown) [Example 15, 1-[2-(5-oxo-octahydro-pentalen-2-ylamino)-acetyl]-pyrrolidine-2-carbonitrile hydrochloride], the “inhibitor activity of DPPIV in vivo (hypoglycemic activity, glucose tolerance)” value with normal ICR mice is recorded as “good inhibitor activities of DPPIV in vivo”.
Consider `Cl.N#CC1CCCN1C(=O)CNC1CC2CC(O)CC2C1` (stereo not shown) [Example 16, 1-(2-(5-hydroxyl-octahydro-pentalen-2-ylamino)-acetyl)pyrrolidine-2-carbonitrile hydrochloride], for which, in the assay on normal ICR mice, the “in vivo activity compared with positive control LAF-237” value is on record as “slightly better than LAF-237” and the “inhibitor activity of DPPIV in vivo (hypoglycemic activity, glucose tolerance)” value was “good inhibitor activities of DPPIV in vivo”.
In assay [1], `CC(C)(C)NC(=O)OC1CC2CC(NCC(=O)N3CCCC3C#N)CC2C1` (stereo not shown) [Example 8, 5-[2-(2-cyano-pyrrolidin-1-yl)-2-oxo-ethylamino]-octahydro-pentalen-2-yl tert-butyl-carbamate hydrochloride] yielded an IC50 of 0.326 µM.
Consider `N#CC1CCCN1C(=O)CNC1CC2CC(OC(=O)Nc3ccccc3)CC2C1` (stereo not shown) [Example 6, 5-[2-(2-cyano-pyrrolidin-1-yl)-2-oxo-ethylamino]-octahydro-pentalen-2-yl phenyl-carbamate hydrochloride], for which the IC50 in assay [1] stood at 0.121 µM.

Values taken from US20090176847A1, “Dicyclooctane Derivatives, Preparation Processes and Medical Uses Thereof” (priority 2006, published 2009).
